Assay results taken from PubChem BioAssay (NCI).
Where “and” joins values, the source holds several entries; their conditions need not be identical. Equal entries are not always repeated.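 Cultured in 96-well plates, cells were exposed to test compound for 48 hours across five concentrations. Here, GI50 denotes the concentration required for 50% inhibition of growth. TGI marks complete inhibition of growth.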

What was measured:
Assay in all cases: DTP human tumour cell line panel, 48 h
CAKI-1 renal = system: CAKI-1 renal
KM12 colon = system: KM12 colon
HT29 colon = system: HT29 colon
CCRF-CEM leukemia = system: CCRF-CEM leukemia
HCT-116 colon = system: HCT-116 colon
786-0 renal = system: 786-0 renal
U251 CNS = system: U251 CNS
HOP-92 NSCLC = system: HOP-92 NSCLC
OVCAR-3 ovarian = system: OVCAR-3 ovarian
NCI-H460 lung = system: NCI-H460 lung

| SMILES | TGI (CAKI-1 renal) | TGI (KM12 colon) | TGI (HT29 colon) | TGI (CCRF-CEM leukemia) | TGI (HCT-116 colon) | TGI (786-0 renal) | TGI (U251 CNS) | TGI (HOP-92 NSCLC) | TGI (OVCAR-3 ovarian) | TGI (NCI-H460 lung) | GI50 (CAKI-1 renal) | GI50 (KM12 colon) | GI50 (HT29 colon) | GI50 (CCRF-CEM leukemia) | GI50 (HCT-116 colon) | GI50 (786-0 renal) | GI50 (U251 CNS) | GI50 (HOP-92 NSCLC) | GI50 (OVCAR-3 ovarian) | GI50 (NCI-H460 lung) |
| --- | --- | --- | --- | --- | --- | --- | --- | --- | --- | --- | --- | --- | --- | --- | --- | --- | --- | --- | --- | --- |
| CC1(C)C2CCC3(C2)CS(=O)(=O)N2OC231 (stereo unspecified) | 30.4 µM | 41.9 µM | 31.8 µM | > 100 µM | > 100 µM | 31.2 µM | > 100 µM | 25.2 µM | 33.2 µM | 37.1 µM | – | – | – | – | – | – | – | – | – | – |
| Cc1nc(C(N)=S)sc1C(=O)C/C(=N/N)C(=O)Nc1cccc(Cl)c1C | > 100 µM | > 100 µM | > 100 µM | > 100 µM | > 100 µM | > 100 µM | > 100 µM | > 100 µM | > 100 µM | > 100 µM | – | – | – | – | – | – | – | – | – | – |
| CN(C)C(=O)O[C@@H]1CN[C@@H](C#Cc2cc3ncnc(Nc4ccc(OCc5cccc(F)c5)c(Cl)c4)c3s2)C1 | > 25 µM | > 25 µM | > 25 µM | > 25 µM | > 25 µM | > 21.7 µM | > 25 µM | > 25 µM | > 25 µM | > 25 µM | 5.87 µM | 9.85 µM | > 25 µM | 2.78 µM | > 25 µM | 9.48 µM | > 21.2 µM | 6.5 µM | 7.51 µM | 8.33 µM |
| O=[N+]([O-])c1nccn1COCCBr | > 100 µM | > 100 µM | > 100 µM | > 100 µM | > 100 µM | > 100 µM | > 100 µM | > 100 µM | > 100 µM | > 100 µM | – | – | – | – | – | – | – | – | – | – |
| Cc1c2ccc(N(C)c3ccnc(Nc4cccc(S(N)(=O)=O)c4)n3)cc2nn1C | 24.7 µM | > 25 µM | > 25 µM | > 25 µM | > 25 µM | > 25 µM | > 25 µM | 17.9 µM | > 25 µM | > 25 µM | 7.73 µM | 8.12 µM | 8.03 µM | 9.21 µM | 8.23 µM | 13.2 µM | 10.9 µM | 5.41 µM | 14.2 µM | 7.23 µM |
| NC(=O)c1ccc(C2C3=C(CCCC3=O)OC3=C2C(=O)c2ccccc2C3=O)cc1 (stereo unspecified) | 3.67 µM | 4.52 µM | 5.58 µM | 2.21 µM | 0.76 µM | 2.33 µM | 1.22 µM | 2.91 µM | 0.852 µM | 2.05 µM | 1.9 µM | 1.34 µM | 1.77 µM | 0.35 µM | 0.26 µM | 1.04 µM | 0.358 µM | 0.855 µM | 0.276 µM | 0.458 µM |
| CSc1ccc(/C=C2\C=C(CC(=O)NCc3ccc(C(=O)c4ccccc4)cc3)c3cc(F)ccc32)cc1 | 8.23 µM | 1.48 µM | 2.73 µM | 38.9 µM | 2.76 µM | 2.66 µM | 2.33 µM | 6 µM | 0.0643 µM | 4.39 µM | 0.0741 µM | 0.0335 µM | 0.0368 µM | 0.0337 µM | 0.0367 µM | 0.125 µM | 0.0379 µM | 0.179 µM | 0.0245 µM | 0.0377 µM |
| CNC(=S)N/N=C/c1ccc([N+](=O)[O-])s1 | > 10 µM | > 10 µM | > 10 µM | > 10 µM | > 10 µM | > 10 µM | > 10 µM | > 10 µM | 7.24 µM | > 10 µM | – | – | – | – | – | – | – | – | – | – |
| CCOC(=O)COS(=O)(=O)C(F)(F)F | > 100 µM | > 100 µM | > 100 µM | > 100 µM | > 100 µM | > 100 µM | > 100 µM | > 100 µM | > 100 µM | > 100 µM | – | – | – | – | – | – | – | – | – | – |
| CCOC(=O)C(=O)Nc1c(C(C)C)cccc1C(C)C | > 100 µM | > 100 µM | > 100 µM | > 100 µM | > 100 µM | > 100 µM | > 100 µM | > 100 µM | > 100 µM | > 100 µM | – | – | – | – | – | – | – | – | – | – |
| COc1cc(S(C)(=O)=O)ccc1Nc1nc2ccc(-c3ccc(NC(=O)[C@H](C)c4ccc(F)cc4)cc3)cn2n1 | > 100 µM | > 100 µM | > 100 µM | > 100 µM | > 100 µM | > 100 µM | > 100 µM | > 100 µM | > 100 µM | > 100 µM | > 100 µM | > 72.4 µM | – | 0.62 µM | 0.0828 µM | > 100 µM | 35.9 µM | > 51.1 µM | > 100 µM | 0.0821 µM |
| Cn1cc(CNCC2CCN(c3ncc(C(=O)NO)cn3)CC2)c2ccccc21 | 0.169 µM | 0.589 µM | 0.587 µM | 49.3 µM | 0.0328 µM | 8.89 µM | 0.128 µM | 0.0399 µM | 0.126 µM | 11.5 µM | 0.0233 µM | 0.0215 µM | < 0.01 µM | < 0.0116 µM | < 0.01 µM | 0.0414 µM | 0.0133 µM | < 0.0107 µM | 0.0158 µM | 0.0131 µM |
| CCN(CC)CCCC(C)Nc1c2ccc(C)cc2nc2ccc(OC)cc12 (stereo unspecified) | 8.98 µM | 9.19 µM | 3.32 µM | 9.9 µM | 6.46 µM | 8.58 µM | 4.45 µM | 5.1 µM | 4.14 µM | 3.74 µM | 2.68 µM | 1.39 µM | 0.37 µM | 1.82 µM | 0.585 µM | 2.05 µM | 1.35 µM | 0.885 µM | 1.75 µM | 1.2 µM |
| CCN(CC)CCNc1n[n+]([O-])c2ccccc2[n+]1[O-] | – | 25.2 µM and 29 µM | 39.2 µM and 42.7 µM | 13.7 µM and 30.6 µM | 26.6 µM and 31 µM | 64.5 µM and 21 µM | > 52.4 µM and 36.9 µM | > 21.8 µM and 46.6 µM | 26.2 µM | 38.4 µM and 12.6 µM | 2.89 µM and 6.81 µM | – | – | – | – | – | – | 2.28 µM and 7.45 µM | – | 3.94 µM and 1.54 µM |
| O=Cc1ccc(-c2cccs2)s1 | 49.7 µM | > 100 µM | > 68.1 µM | > 100 µM | > 100 µM | > 100 µM | > 93.8 µM | > 68.1 µM | 58.1 µM | > 92.4 µM | – | – | – | – | – | – | – | – | – | – |
